Measured values reported in patent US20220194935A1, “PHENETHYL SUBSTITUTED IMIDAZO[4,5-C]QUINOLINE COMPOUNDS WITH AN N-1 BRANCHED GROUP” (3M INNOVATIVE PROPERTIES COMPANY, priority 2019, published 2022).

Assays:
human TLR8 = target: T1, human TLR8 (Homo sapiens, UniProt Q9NR97); assay: TLR Activation and Specificity, HEK-BLUE-hTLR8 SEAP reporter cells; type: cell-based; conditions: 16-20 hours, at least 2× vehicle control, tested 0.01-30 micromolar
T1 construct: host or cells: HEK293 (HEK-BLUE-hTLR8)
T1 sequence (Q9NR97 27-1041): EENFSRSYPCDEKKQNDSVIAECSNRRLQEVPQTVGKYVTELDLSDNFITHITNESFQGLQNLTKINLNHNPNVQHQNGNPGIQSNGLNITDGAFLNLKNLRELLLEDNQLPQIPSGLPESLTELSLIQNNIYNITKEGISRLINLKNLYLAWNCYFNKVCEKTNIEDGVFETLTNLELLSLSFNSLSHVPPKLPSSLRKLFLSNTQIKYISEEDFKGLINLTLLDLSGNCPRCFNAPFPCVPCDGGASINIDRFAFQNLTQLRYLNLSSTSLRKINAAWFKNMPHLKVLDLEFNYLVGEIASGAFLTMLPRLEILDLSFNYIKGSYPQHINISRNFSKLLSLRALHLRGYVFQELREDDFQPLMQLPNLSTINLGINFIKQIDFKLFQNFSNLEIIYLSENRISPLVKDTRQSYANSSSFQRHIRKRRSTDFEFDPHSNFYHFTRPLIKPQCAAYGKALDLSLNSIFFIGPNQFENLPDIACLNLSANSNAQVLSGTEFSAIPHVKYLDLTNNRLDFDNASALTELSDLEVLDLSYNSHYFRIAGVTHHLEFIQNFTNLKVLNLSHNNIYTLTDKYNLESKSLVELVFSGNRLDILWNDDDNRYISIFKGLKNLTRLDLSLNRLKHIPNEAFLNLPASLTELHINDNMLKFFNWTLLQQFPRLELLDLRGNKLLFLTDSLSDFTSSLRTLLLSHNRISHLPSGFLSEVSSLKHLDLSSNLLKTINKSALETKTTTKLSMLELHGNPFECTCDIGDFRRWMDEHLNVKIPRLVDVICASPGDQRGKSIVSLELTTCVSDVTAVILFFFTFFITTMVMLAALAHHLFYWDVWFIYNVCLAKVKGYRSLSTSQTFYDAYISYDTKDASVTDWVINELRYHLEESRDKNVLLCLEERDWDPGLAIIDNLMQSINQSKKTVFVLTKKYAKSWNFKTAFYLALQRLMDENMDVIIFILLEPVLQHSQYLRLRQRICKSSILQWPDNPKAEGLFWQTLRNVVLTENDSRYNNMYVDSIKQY
Experimental: (§1) HEK-BLUE-hTLR7 or hTLR8 reporter cells were obtained from InvivoGen, San Diego, Calif. According to the manufacturer's description, these reporter cells were prepared by co-transfection of HEK293 cells with an inducible secreted embryonic alkaline phosphatase (SEAP) reporter gene and either the human TLR7 or TLR8 gene. The SEAP reporter gene was placed under the control of an IFN-β minimal promoter fused to five NF-κB and AP-1-binding sites. In the presence of a TLR ligand, activation of NF-κB and AP-1 occurs, resulting in a corresponding increase in SEAP levels.
(§2) In the assay, the HEK cells were grown and maintained using standard cell culture techniques in a growth medium that contained Dulbecco's Modified Eagle Medium (ThermoFisher Scientific Incorporated, Waltham, Mass.) supplemented with 1% penicillin/streptomycin and 10% heat-inactivated Gibco fetal bovine serum (ThermoFisher Scientific). Each compound was solubilized in DMSO to create a 3 millimole (mM) stock solution. The stock solution was then further diluted with the growth medium to prepare serial dilutions. Each test compound was tested at a concentration of 30, 10, 3.3, 1.1, 0.37, 0.12, 0.04, and 0.01 micromolar using a 96-well format with 5×10^4 cells and 200 microliters of growth medium per well.
(§3) For each compound, hTLR7, hTLR8, and their respective null control HEK cells were screened. DMSO serially diluted into the growth medium served as the vehicle control. Cell culture supernatants containing the SEAP reporter were collected after an incubation period of 16-20 hours in a cell culture incubator (37° C. and 5% CO2), and either analyzed immediately or stored at −80° C. SEAP levels were measured using the colorimetric enzyme assay (QUANTI-BLUE (InvivoGen) according to manufacturer's instructions.
(§4) Specifically, the minimum effective concentration of each compound (micromolar) was determined as the lowest concentration of the compound that produced a SEAP expression response at least 2× greater than that observed with the vehicle control wells.

human TLR7 = target: T2, human TLR7 (Homo sapiens, UniProt Q9NYK1); assay: TLR Activation and Specificity, HEK-BLUE-hTLR7 SEAP reporter cells; type: cell-based; conditions: 16-20 hours, at least 2× vehicle control, tested 0.01-30 micromolar
T2 construct: host or cells: HEK293 (HEK-BLUE-hTLR7)
T2 sequence (Q9NYK1 27-1049): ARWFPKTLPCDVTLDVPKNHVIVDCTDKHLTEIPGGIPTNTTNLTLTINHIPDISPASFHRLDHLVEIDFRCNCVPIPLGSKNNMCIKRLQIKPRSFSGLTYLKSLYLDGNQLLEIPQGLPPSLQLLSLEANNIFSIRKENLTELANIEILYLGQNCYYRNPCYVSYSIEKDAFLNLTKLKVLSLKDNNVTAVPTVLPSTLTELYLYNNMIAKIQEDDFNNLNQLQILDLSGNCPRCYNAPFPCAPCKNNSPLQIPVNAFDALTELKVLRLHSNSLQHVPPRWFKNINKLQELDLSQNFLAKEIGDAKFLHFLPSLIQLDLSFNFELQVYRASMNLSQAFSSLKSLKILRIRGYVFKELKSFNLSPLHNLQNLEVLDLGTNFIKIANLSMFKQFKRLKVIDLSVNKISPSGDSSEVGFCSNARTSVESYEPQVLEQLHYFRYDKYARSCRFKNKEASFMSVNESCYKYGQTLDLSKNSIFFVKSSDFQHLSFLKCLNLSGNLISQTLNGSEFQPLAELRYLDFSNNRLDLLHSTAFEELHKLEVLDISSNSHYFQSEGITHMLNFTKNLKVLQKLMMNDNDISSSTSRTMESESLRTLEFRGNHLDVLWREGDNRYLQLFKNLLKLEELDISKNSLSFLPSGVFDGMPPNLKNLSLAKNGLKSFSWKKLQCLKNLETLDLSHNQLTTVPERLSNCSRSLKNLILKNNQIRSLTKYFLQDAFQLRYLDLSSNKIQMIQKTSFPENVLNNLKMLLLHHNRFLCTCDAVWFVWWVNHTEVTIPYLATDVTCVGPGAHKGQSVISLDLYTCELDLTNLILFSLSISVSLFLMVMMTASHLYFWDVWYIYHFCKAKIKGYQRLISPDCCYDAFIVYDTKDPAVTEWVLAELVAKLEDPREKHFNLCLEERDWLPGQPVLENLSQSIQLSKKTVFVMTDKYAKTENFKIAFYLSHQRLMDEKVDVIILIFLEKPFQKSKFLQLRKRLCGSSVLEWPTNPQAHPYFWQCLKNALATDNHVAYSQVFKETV
Experimental: as §1, §2, §3, §4

| SMILES | MEC to Produce TLR Activation, TLR 8 (human TLR8) [µM] | MEC to Produce TLR Activation, TLR 7 (human TLR7) [µM] |
| --- | --- | --- |
| COC[C@H](Cc1ccccc1)n1cnc2c(N)nc3ccccc3c21 [Example 5, 1-[(1S)-1-benzyl-2-methoxy-ethyl]imidazo[4,5-c]quinolin-4-amine] | 10 | ≤0.01 |
| CCCC[C@H](Cc1ccccc1)n1cnc2c(N)nc3ccccc3c21 [Example 2, 1-[(1R)-1-benzylpentyl]imidazo[4,5-c]quinolin-4-amine] | 10 | ≤0.01 |
| CCOC[C@@H](Cc1ccccc1)n1cnc2c(N)nc3ccccc3c21 [Example 4, 1-[(1R)-1-benzyl-2-ethoxy-ethyl]imidazo[4,5-c]quinolin-4-amine] | >30 | 1.1 |
| C[C@H](Cc1ccccc1)n1cnc2c(N)nc3ccccc3c21 [Example 1, 1-[(1R)-1-methyl-2-phenyl-ethyl]imidazo[4,5-c]quinolin-4-amine] | >30 | 0.37 |
| COC[C@@H](Cc1ccccc1)n1cnc2c(N)nc3ccccc3c21 [Example 3, 1-[(1R)-1-benzyl-2-methoxy-ethyl]imidazo[4,5-c]quinolin-4-amine] | >30 | 1.1 |
| CCOC[C@H](Cc1ccccc1)n1cnc2c(N)nc3ccccc3c21 [Example 6, 1-[(1S)-1-benzyl-2-ethoxy-ethyl]imidazo[4,5-c]quinolin-4-amine] | 3.3 | ≤0.01 |
| CCCCOc1ccc(C[C@@H](CCCC)n2cnc3c(N)nc4ccccc4c32)cc1 [Example 7, 1-[(1R)-1-[(4-butoxyphenyl)methyl]pentyl]imidazo[4,5-c]quinolin-4-amine] | 10 | ≤0.01 |
| Nc1nc2ccccc2c2c1ncn2CCc1ccccc1 [Comparative Example 1, 1-phenethyl-1H-imidazo[4,5-c]quinolin-4-amine, reference compound] | >30 | 1.1 |
